Starred links: 1 amine or outer side, 2 acyl side, 3 side chain; linkers in the order of their positions; H or OH if unused. Positions of bridges follow the written chain, without caps; N, C: chain ends. Non-standard residues stand in square brackets, D forms with d. Residues, ends and D or L forms follow the SMILES beside them. ξ: configuration not given here. *: point of attachment. X5 = Cn1nc(C(=O)Nc2ccc(-c3ccc(C[C@H](N[*:1])C(=O)[*:2])cc3)cc2)c2ccccc21; Bip(4'-NH) = O=C([C@H](Cc1ccc(-c2ccc(N[*:3])cc2)cc1)N[*:1])[*:2]; Indazole3carbonyl(1-CH2COOH) = O=C(O)Cn1nc(C(=O)*)c2ccccc21; Bip(4'-COOH) = N[C@@H](Cc1ccc(-c2ccc(C(=O)O)cc2)cc1)C(=O)O; X27 = N=C(NCCC[C@@H](N[*:1])C(=O)[*:2])NCCc1ccc2c(c1)OCO2; X83 = N=C(NCCC[C@@H](N[*:1])C(=O)[*:2])NCCc1ccc(O)c(O)c1; X18 = N=C(NCCC[C@@H](N[*:1])C(=O)[*:2])NCCc1ccc(O)cc1; X35 = N=C(NCCC[C@@H](N[*:1])C(=O)[*:2])NCCc1ccc(N)cc1; X58 = N=C(NCCC[C@@H](N[*:1])C(=O)[*:2])NCCc1cccc(N)c1; Ala(imidazol-2-yl) = N[C@@H](Cc1ncc[nH]1)C(=O)O; Ala(morpholin-4-yl) = N[C@@H](CN1CCOCC1)C(=O)O; Bip = N[C@@H](Cc1ccc(-c2ccccc2)cc1)C(=O)O; Tic = O=C(O)[C@@H]1Cc2ccccc2CN1; Cha = N[C@@H](CC1CCCCC1)C(=O)O; X20 = O=C(c1csc(-c2ccncc2)n1)*; ξP = O=C(O)C1CCCN1; Sar = CNCC(=O)O

TNFα, sequence (P01375 77-233 limits assumed): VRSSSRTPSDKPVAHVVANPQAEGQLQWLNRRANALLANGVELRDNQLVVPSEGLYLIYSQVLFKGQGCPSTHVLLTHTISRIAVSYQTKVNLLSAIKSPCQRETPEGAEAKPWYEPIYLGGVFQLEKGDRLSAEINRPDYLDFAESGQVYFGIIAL

One test concerns the target TNFα (Homo sapiens, UniProt P01375). The test is described as follows: TNF-Induced HEK-Blue Assay. In kind it is cell-based.
Conditions: not given
What is called IC50 is the concentration at which inhibition is half-maximal. As to `CC(C)C[C@@H]1NC(=O)[C@H](CCCNC(=N)N)NC(=O)[C@H](C(C)C)NC(=O)[C@@H]2CCCN2C(=O)[C@H](C(C)C)NC(=O)[C@@H](CCCNC(=N)NCCc2ccc(O)cc2)NC(=O)[C@H](CC(=O)O)NC(=O)[C@@H]2CCCN2C(=O)CN(C)C(=O)[C@H](Cc2ccc(-c3ccc(NC(=O)c4nn(CC(=O)O)c5ccccc45)cc3)cc2)NC(=O)[C@H](Cc2ccc(-c3ccccc3)cc2)NC(=O)[C@H](CN2CCOCC2)NC(=O)CSC[C@@H](C(=O)NCC(N)=O)NC1=O` [Example 403] ({CH2CO}-[Ala(morpholin-4-yl)][Bip][Bip(4'-NH)](Indazole3carbonyl(1-CH2COOH))[Sar]PD[X18]VPVRLCG-NH2; thioether N-13), the half-inhibitory concentration (IC50) was in the range of 50 to 200 nM.
On the same count and under the same terms, in the case of `CC(C)C[C@@H]1NC(=O)[C@H](CCCNC(=N)N)NC(=O)[C@H](C(C)C)NC(=O)C2CCCN2C(=O)[C@H](C(C)C)NC(=O)[C@@H](CCCNC(=N)NCCc2ccc(O)cc2)NC(=O)[C@H](CC(=O)O)NC(=O)[C@@H]2CCCN2C(=O)CN(C)C(=O)[C@H](Cc2ccc(-c3ccc(NC(=O)c4nn(CC(=O)O)c5ccccc45)cc3)cc2)NC(=O)[C@H](Cc2ccc(-c3ccc(C(=O)O)cc3)cc2)NC(=O)[C@H](CN2CCOCC2)NC(=O)CSC[C@@H](C(=O)NCC(N)=O)NC1=O` (stereo partly shown) [Example 404] ({CH2CO}-[Ala(morpholin-4-yl)][Bip(4'-COOH)][Bip(4'-NH)](Indazole3carbonyl(1-CH2COOH))[Sar]PD[X18]V[ξP]VRLCG-NH2; thioether N-13) it was 50 to 200 nM.
On the same count and under the same terms, in the case of `CC(C)C[C@@H]1NC(=O)[C@H](CCCNC(=N)N)NC(=O)[C@H](C(C)C)NC(=O)C2CCCN2C(=O)[C@H](C(C)C)NC(=O)[C@@H](CCCNC(=N)NCCc2cccc(N)c2)NC(=O)[C@H](CC(=O)O)NC(=O)[C@@H]2CCCN2C(=O)CN(C)C(=O)[C@H](Cc2ccc(-c3ccc(NC(=O)c4nn(CC(=O)O)c5ccccc45)cc3)cc2)NC(=O)[C@H](Cc2ccc(-c3ccccc3)cc2)NC(=O)[C@H](CN2CCOCC2)NC(=O)CSC[C@@H](C(=O)NCC(N)=O)NC1=O` (stereo partly shown) [Example 405] ({CH2CO}-[Ala(morpholin-4-yl)][Bip][Bip(4'-NH)](Indazole3carbonyl(1-CH2COOH))[Sar]PD[X58]V[ξP]VRLCG-NH2; thioether N-13) it was 50 to 200 nM; in that of `CC(C)C[C@@H]1NC(=O)[C@H](CCCNC(=N)N)NC(=O)[C@H](C(C)C)NC(=O)C2CCCN2C(=O)[C@H](C(C)C)NC(=O)[C@@H](CCCNC(=N)NCCc2cccc(N)c2)NC(=O)[C@H](CC(=O)O)NC(=O)[C@@H]2CCCN2C(=O)CN(C)C(=O)[C@H](Cc2ccc(-c3ccc(NC(=O)c4nn(CC(=O)O)c5ccccc45)cc3)cc2)NC(=O)[C@H](Cc2ccc(-c3ccc(C(=O)O)cc3)cc2)NC(=O)[C@H](CN2CCOCC2)NC(=O)CSC[C@@H](C(=O)NCC(N)=O)NC1=O` (stereo partly shown) [Example 406] ({CH2CO}-[Ala(morpholin-4-yl)][Bip(4'-COOH)][Bip(4'-NH)](Indazole3carbonyl(1-CH2COOH))[Sar]PD[X58]V[ξP]VRLCG-NH2; thioether N-13), 50 to 200 nM; in that of `CC(C)C[C@@H]1NC(=O)[C@H](CCCNC(=N)N)NC(=O)[C@H](C(C)C)NC(=O)[C@@H]2CCCN2C(=O)[C@H](C(C)C)NC(=O)[C@@H](CCCNC(=N)NCCc2ccc(N)cc2)NC(=O)[C@H](CC(=O)O)NC(=O)[C@@H]2CCCN2C(=O)CN(C)C(=O)[C@H](Cc2ccc(-c3ccc(NC(=O)c4nn(CC(=O)O)c5ccccc45)cc3)cc2)NC(=O)[C@H](Cc2ccc(-c3ccccc3)cc2)NC(=O)[C@H](CN2CCOCC2)NC(=O)CSC[C@@H](C(=O)NCC(N)=O)NC1=O` [Example 407] ({CH2CO}-[Ala(morpholin-4-yl)][Bip][Bip(4'-NH)](Indazole3carbonyl(1-CH2COOH))[Sar]PD[X35]VPVRLCG-NH2; thioether N-13), 50 to 200 nM.
On the same count and under the same terms, the value for `CC(C)C[C@@H]1NC(=O)[C@H](CCCNC(=N)N)NC(=O)[C@H](C(C)C)NC(=O)[C@@H]2CCCN2C(=O)[C@H](C(C)C)NC(=O)[C@@H](CCCNC(=N)NCCc2ccc3c(c2)OCO3)NC(=O)[C@H](CC(=O)O)NC(=O)[C@@H]2CCCN2C(=O)CN(C)C(=O)[C@H](Cc2ccc(-c3ccc(NC(=O)c4nn(CC(=O)O)c5ccccc45)cc3)cc2)NC(=O)[C@H](Cc2ccc(-c3ccccc3)cc2)NC(=O)[C@H](CN2CCOCC2)NC(=O)CSC[C@@H](C(=O)NCC(N)=O)NC1=O` [Example 408] ({CH2CO}-[Ala(morpholin-4-yl)][Bip][Bip(4'-NH)](Indazole3carbonyl(1-CH2COOH))[Sar]PD[X27]VPVRLCG-NH2; thioether N-13) was less than 50 nM; that for `CC(C)C[C@@H]1NC(=O)[C@H](CCCNC(=N)N)NC(=O)[C@H](C(C)C)NC(=O)[C@@H]2CCCN2C(=O)[C@H](C(C)C)NC(=O)[C@@H](CCCNC(=N)NCCc2ccc3c(c2)OCO3)NC(=O)[C@H](CC(=O)O)NC(=O)[C@@H]2CCCN2C(=O)CN(C)C(=O)[C@H](Cc2ccc(-c3ccc(NC(=O)c4nn(CC(=O)O)c5ccccc45)cc3)cc2)NC(=O)[C@H](Cc2ccc(-c3ccc(C(=O)O)cc3)cc2)NC(=O)[C@H](CN2CCOCC2)NC(=O)CSC[C@@H](C(=O)NCC(N)=O)NC1=O` [Example 409] ({CH2CO}-[Ala(morpholin-4-yl)][Bip(4'-COOH)][Bip(4'-NH)](Indazole3carbonyl(1-CH2COOH))[Sar]PD[X27]VPVRLCG-NH2; thioether N-13) was 50 to 200 nM; that for `CC(C)C[C@@H]1NC(=O)[C@H](CCCNC(=N)N)NC(=O)[C@H](C(C)C)NC(=O)C2CCCN2C(=O)[C@H](C(C)C)NC(=O)[C@@H](CCCNC(=N)NCCc2ccc(O)c(O)c2)NC(=O)[C@H](CC(=O)O)NC(=O)[C@@H]2CCCN2C(=O)CN(C)C(=O)[C@H](Cc2ccc(-c3ccc(NC(=O)c4nn(CC(=O)O)c5ccccc45)cc3)cc2)NC(=O)[C@H](Cc2ccc(-c3ccccc3)cc2)NC(=O)[C@H](CN2CCOCC2)NC(=O)CSC[C@@H](C(=O)NCC(N)=O)NC1=O` (stereo partly shown) [Example 410] ({CH2CO}-[Ala(morpholin-4-yl)][Bip][Bip(4'-NH)](Indazole3carbonyl(1-CH2COOH))[Sar]PD[X83]V[ξP]VRLCG-NH2; thioether N-13) was 200 to 2000 nM.

The same test, now with this note: HEK-Blue-CD40L cells, NF-kB-driven secreted alkaline phosphatase reporter; TNFα 0.5 ng/ml; 18 h; read-out: TNF induced HEK-Blue assay IC50 value.
Take `CC[C@H](C)[C@@H]1NC(=O)[C@@H]2CCCN2C(=O)[C@H]([C@@H](C)CC)NC(=O)[C@@H](CCCNC(=N)N)NC(=O)[C@H](CC(=O)O)NC(=O)[C@H](Cc2ccccc2)NC(=O)CN(C)C(=O)[C@H](Cc2ccc(-c3ccc(NC(=O)c4nn(C)c5ccccc45)cc3)cc2)NC(=O)[C@H](Cc2ccc(-c3ccccc3)cc2)NC(=O)[C@H](CC2CCCCC2)NC(=O)CSC[C@@H](C(=O)NCC(N)=O)NC(=O)[C@H](CC(C)C)NC(=O)[C@H](Cc2ncc[nH]2)NC1=O` [Example 402] ({CH2CO}-[Cha][Bip][X5][Sar]FD[dR]IPI[Ala(imidazol-2-yl)]LCG-NH2; thioether N-13): the IC50 was 50 to 200 nM.
On to `CC[C@H](C)[C@@H]1NC(=O)[C@@H](CCCNC(=N)N)NC(=O)[C@H](CC(=O)O)NC(=O)[C@H](Cc2cnc[nH]2)NC(=O)CN(C)C(=O)[C@H](Cc2ccc(-c3ccc(NC(=O)c4csc(-c5ccncc5)n4)cc3)cc2)NC(=O)[C@H](Cc2ccc(-c3ccc(C(=O)O)cc3)cc2)NC(=O)[C@H](CC2CCCCC2)NC(=O)CSC[C@@H](C(=O)NCC(N)=O)NC(=O)[C@H](CC(C)C)NC(=O)[C@H](Cc2ncc[nH]2)NC(=O)[C@H](C(C)C)NC(=O)[C@@H]2Cc3ccccc3CN2C1=O` [Example 411] ({CH2CO}-[Cha][Bip(4'-COOH)][Bip(4'-NH)](X20)[Sar]HD[dR]I[Tic]V[Ala(imidazol-2-yl)]LCG-NH2; thioether N-13), for which the half-inhibitory concentration (IC50) fell in the range of 50 to 200 nM.

These data come from patent US20250145665A1, “MACROCYCLIC PEPTIDES USEFUL AS MODULATORS OF TNF ALPHA” (Bristol-Myers Squibb Company, priority 2023, published 2025).
